Data on one compound can be found in article PMC9131456, “Structure-Based Discovery of Lipoteichoic Acid Synthase Inhibitors” (Journal of Chemical Information and Modeling, 2022).

In this test the test system is S. aureus (strain Newman). The test can be described thus: Non-lethal S. aureus lung infection mouse model. It counts as in vivo, BALB/c female mice. The note with it: single intranasal dose of 300 μg 3 h postinfection; lungs collected 24 h postinfection; 5 × 10^7 CFU intranasal. The text has this: All in vivo experiments were done at the University of Liverpool under the UK Animals (Scientific Procedures) Act 1986 guidelines. The protocols were approved by the UK Home Office and by the University of Liverpool Animal Welfare and Ethics Committee. Six to eight week old BALB/c female mice (Charles River, UK) were used in the study after being left to acclimatize for a minimum of 7 days prior to experimentation. Mice were intranasally infected with 5 × 10^7 CFU of the S. aureus (strain Newman) in 50 μL of sterile phosphate-buffered saline (PBS). The bacterial dose was prepared by incubating 50 μL of an overnight culture in brain heart infusion (BHI) broth (Oxoid, Thermo Fisher Scientific, UK) into 5 mL of fresh BHI. Once the culture reached an OD600 = 2–3, the bacterial numbers were adjusted to the desired dose using sterile PBS. Three hours postinfection, mice were intranasally treated with either 50 μL of sterile PBS (control) or with 300 μg of compounds 1771 and compound 4 dissolved in 50 μL of sterile PBS. The final DMSO concentration was 5%, and the PBS control also contained 5% DMSO. Mice were culled 24 h postinfection; lungs were collected, homogenized, and serially diluted to determine CFU counts.[70] Significant differences were determined using the unpaired two-tailed Student t-test (p = 0.0013).

For the compound `O=C(COC(=O)c1cn(-c2ccccc2)nc1-c1cccs1)Nc1nnc(-c2ccccc2)o1` [Compound 4], the “reduction in recoverable colonies from the lungs” value is given as 2 log.
